Test system: mold mite
Test: Toxicity of plant essential oils fogged into food cartons against mold mites
Format: in vivo
Conditions: for control of the mites (pest mortality): about 1 g test substance fogged into half pint milk carton, about 100 mites per carton, cartons opened at 24 hour intervals, from day one; for control of the mites (mortality): repeated experiment, cartons not opened until day ten
Source text: Half pint milk cartons were used as sample food containers. The composition of the carton is multilayer paper, plastic and foil. The last two inner layers are foil and plastic; the food inside the carton is in contact with the plastic. Utilizing a ULV sprayer, the plant essential oils were fogged into the container. Approximately one gram of liquid test substance (i.e. plant essential oil) was deposited into the container. The desired amount of food and approximately 100 mites per carton were then added to the container and the carton was sealed. The materials tested included 2-phenyl ethyl alcohol, 2-phenyl ethyl propionate, trans-anethole, and benzyl alcohol. The cartons were opened at 24 hour intervals, a new carton each interval, to observe for pest mortality and the results were recorded.
The experiment was repeated, but the cartons were not opened until day ten.

OCCc1ccccc1 [2-phenyl ethyl alcohol]
control of the mites (pest mortality): good control
control of the mites (mortality): best results of mortality

CCC(=O)OCCc1ccccc1 [2-phenyl ethyl propionate]
control of the mites (pest mortality): good control
control of the mites (mortality): best results of mortality
